Assay results taken from patent publication US20250235545A1, “POLYPEPTIDE CONJUGATE AND USE THEREOF” (SHANGHAI CHIXI BIOMEDICAL TECHNOLOGY CO., LTD, priority 2024, published 2025).
Converted amounts (≈) assume the structure as drawn. Where two headings read alike, the source gives them in different places.

What was measured:
[1] = system: A549 (non-small cell lung cancer); experiment: cells; format: cell-based; conditions: CCK8, 48 h; for IC50: Homo sapiens, A549
Procedure: (§1) Different types of cells were cultured with complete media (RPMI1640 (DMEM high sugar medium)+10% fetal bovine serum+1XP/S+sodium pyruvate 1 mM solution) in an incubator at 37° C. and 5% CO2 until the cells grew to a sufficient number, and the cells were collected, centrifuged at 1,000 g for 5 min, resuspended with an appropriate volume of a 10% RMPI1640 (DMEM high sugar medium) medium and counted. In a 96-well culture plate, 100 μL of cell culture fluid containing different concentrations of drugs was added, control wells (0.1% DMSO) with only corresponding drug solvents without drugs, as well as blank wells (Blank) with only the medium but without cells were set, and three parallel wells were set in each group. After that, the cells after cell counting were inoculated onto 96-well culture plates, with 100 μL of cell suspension per well, and an inoculation concentration of the cells was 5,000 cells (100 μL)/well. The plates were then cultured in a CO2 (5%) incubator at 37° C. for 48 h. After 48 h, 10 μL of a cell proliferation staining reagent (CCK8) was added to each well, the plates were incubated in a cell incubator for around 2 h, and an absorbance at 450 nm was detected.
(§2) Cell survival rates and median inhibitory concentrations of the drugs on the cells were calculated.
as §1, with “serum+1×P/S+sodium” for “serum+1XP/S+sodium”, “adjusted to an appropriate density.” for “counted.”
(§3) Cell survival rates and median inhibitory concentrations (IC50) of the drugs on the cells were calculated.

A2780 (ovarian cancer) = experiment: cells; format: cell-based; conditions: CCK8, 48 h; for IC50: Homo sapiens, A2780
Procedure: as §1, §2
as §1, with “serum+1×P/S+sodium” for “serum+1XP/S+sodium”, “adjusted to an appropriate density.” for “counted.”
as §3

SJSA-1 (sarcoma tissue) = experiment: cells; format: cell-based; conditions: CCK8, 48 h; for IC50: Homo sapiens, SJSA-1
Procedure: as §1, §2
as §1, with “serum+1×P/S+sodium” for “serum+1XP/S+sodium”, “adjusted to an appropriate density.” for “counted.”
as §3

[2] = system: SKBR3 (breast cancer tissue); experiment: cells; format: cell-based; conditions: CCK8, 48 h; for IC50: Homo sapiens, SK-BR-3
Procedure: as §1, §2
as §1, with “serum+1×P/S+sodium” for “serum+1XP/S+sodium”, “adjusted to an appropriate density.” for “counted.”
as §3

[3] = system: sarcoma SJSA-1 tumor model; conditions: 5 mg/kg once a week for three weeks
Procedure: Test objective: To investigate the antitumor efficacy of the above compounds in an animal tumor model of sarcoma SJSA-1.
(§4) Test drug: Polypeptide conjugate, Irinotecan, Belotecan and normal saline control group.
(§5) Test animals: 6-8 weeks old BALB/c mice, all female.
(§6) SJSA-1 cells were purchased from ATCC and cultured in a DMEM medium containing 10% fetal bovine serum at 37° C. in 5% CO2. Passaging was performed every three days, and cells within 15 generations were used. 2×10^7 corresponding cells were injected into right chests of nude mice subcutaneously. After a volume of the tumors reached at least 100 mm^3, the mice were grouped randomly, with three mice in each group. Then treatment was started, and the day when the treatment was started was the first day. […] The control group was administered with normal saline. Administration was performed once a week for three weeks.
as §6

[4] = system: colo320 (colorectal cancer tissue); experiment: cells; format: cell-based; conditions: CCK8, 48 h, Table 6
Procedure: as §1, with “serum+1×P/S+sodium” for “serum+1XP/S+sodium”, “adjusted to an appropriate density.” for “counted.”
as §3

[5] = system: colo320 colorectal cancer tumor model
Procedure: Test objective: To investigate the antitumor efficacy of the above compounds in an animal tumor model of colo320 colorectal cancer.
as §4, §5
as §6, with “Passaging” for “SJSA-1 cells were purchased from ATCC and cultured in a DMEM medium containing 10% fetal bovine serum at 37° C. in 5% CO2. Passaging”, “used. 7.5×10^6” for “used. 2×10^7”, “least 120” for “least 100”, “for four” for “for three”

[6] = MTD determination in mice (Examples 27, 36, 44); format: in vivo; conditions: mice, monitored for 14 d
Text: Test animals: 6-8 weeks old mice, all female; mice were grouped randomly, with six mice in each group, administered with drugs at different concentration gradients separately and monitored for 14 d. A mouse was euthanized at a loss of 20% of its initial weight and deemed to have died of poisoning.

[7] = 5 mg/kg once a week for four weeks, Table 3
[8] = 5 mg/kg once a week for four weeks, Table 8
[9] = Table 13 (Example 42), dose 5 mg/kg, once a week for four weeks, BALB/c mice
[10] = Table 14 (Example 43), dose 5 mg/kg, once a week for four weeks, BALB/c mice

| Compound | Mouse weight (%) ([3]; Table 2) | SJSA-1 (sarcoma tissue) mean tumor volume (mm^3) ([3]; Table 2) | SJSA-1 (sarcoma) Growth rate (%) ([3]; Table 2) | Mouse weight (%) ([3]; Table 7) | SJSA-1 (sarcoma tissue) growth rate (%) ([3]; Table 7) | SJSA-1 (sarcoma tissue) mean tumor volume (mm^3) ([3]; Table 7) | Mouse weight (%) [5, 7] | colo320 (colorectal cancer cell) growth rate (%) [5, 7] [%] | colo320 (colorectal cancer cell) mean tumor volume (mm^3) [5, 7] [mm^3] | Mouse weight (%) [5, 8] | colo320 (colorectal cancer cell) growth rate (%) [5, 8] [%] | colo320 (colorectal cancer cell) mean tumor volume (mm^3) [5, 8] [mm^3] | IC50 A549 (non-small cell lung cancer) ([1]; Table 1) [mg/L] | IC50 Non-small cell lung cancer tissue (A549) ([1]; Table 6) [mg/L] | IC50 A2780 (ovarian cancer) (A2780 (ovarian cancer); Table 1) [mg/L] | IC50 Ovarian cancer tissue (A2780) (A2780 (ovarian cancer); Table 6) [mg/L] | IC50 SJSA-1 (sarcoma tissue) (SJSA-1 (sarcoma tissue); Table 1) [mg/L] | IC50 Sarcoma tissue (SJSA-1) (SJSA-1 (sarcoma tissue); Table 6) [mg/L] | IC50 SKBR3 (breast cancer tissue) ([2]; Table 1) [mg/L] | IC50 Breast cancer tissue (SKBR3) ([2]; Table 6) [mg/L] | also measured |
| --- | --- | --- | --- | --- | --- | --- | --- | --- | --- | --- | --- | --- | --- | --- | --- | --- | --- | --- | --- | --- | --- |
| CC[C@@]1(O)C(=O)OCc2c1cc1n(c2=O)Cc2c-1nc1ccccc1c2CCNC(C)C [Belotecan, reference compound] | −9 | 1253.2 | 1084.38 | −9 | 1084.38 | 1253.2 | −9% | 869.93 | 963.5 | −9% | 869.93 | 963.5 | – | – | – | – | – | – | – | – | IC50 ([1]; Table 1, read-out: IC50 A549 (non-small cell lung cancer)): 0.0066 mg/L (≈ 0.0152 µM); IC50 ([1]; Table 6, read-out: IC50 Non-small cell lung cancer tissue (A549)): 0.0066 mg/L (≈ 0.0152 µM); IC50 (A2780 (ovarian cancer); Table 1, read-out: IC50 A2780 (ovarian cancer)): 0.0044 mg/L (≈ 0.0101 µM); IC50 (A2780 (ovarian cancer); Table 6, read-out: IC50 Ovarian cancer tissue (A2780)): 0.0044 mg/L (≈ 0.0101 µM); IC50 (SJSA-1 (sarcoma tissue); Table 1, read-out: IC50 SJSA-1 (sarcoma tissue)): 0.0021 mg/L (≈ 0.00484 µM); IC50 (SJSA-1 (sarcoma tissue); Table 6, read-out: IC50 Sarcoma tissue (SJSA-1)): 0.0021 mg/L (≈ 0.00484 µM); IC50 ([2]; Table 1, read-out: IC50 SKBR3 (breast cancer tissue)): 0.0098 mg/L (≈ 0.0226 µM); IC50 ([2]; Table 6, read-out: IC50 Breast cancer tissue (SKBR3)): 0.0098 mg/L (≈ 0.0226 µM); IC50 ([4]; Homo sapiens, COLO 320): 0.014 mg/L (≈ 0.0323 µM); Mouse weight (%) [5, 9]: −9%; colo320 (colorectal cancer cell) growth rate (%) [5, 9]: 869.93%; colo320 (colorectal cancer cell) mean tumor volume (mm^3) [5, 9]: 963.5 mm^3; Mouse weight (%) [5, 10]: −9%; colo320 (colorectal cancer cell) growth rate (%) [5, 10]: 869.93%; colo320 (colorectal cancer cell) mean tumor volume (mm^3) [5, 10]: 963.5 mm^3; MTD ([6]; female, mouse, in vivo, Table 15 (Example 44), six per group, read-out: MTD): 15 mg/kg; MTD ([6]; female, mouse, in vivo, Table 4, read-out: MTD): 15 mg/kg; MTD ([6]; female, mouse, in vivo, Table 9, read-out: MTD): 15 mg/kg |
| CC[C@@]1(O)C(=O)OCc2c1cc1n(c2=O)Cc2c-1nc1ccccc1c2CCNC [D1] | −6 | 1432 | 1235.57 | −6 | 1235.57 | 1432 | −7% | 1012.22 | 1121.1 | −7% | 1012.22 | 1121.1 | 0.027 (≈ 0.0666 µM) | 0.027 (≈ 0.0666 µM) | 0.018 (≈ 0.0444 µM) | 0.018 (≈ 0.0444 µM) | 0.028 (≈ 0.0691 µM) | 0.028 (≈ 0.0691 µM) | 0.050 (≈ 0.123 µM) | 0.050 (≈ 0.123 µM) | IC50 Colorectal cancer tissue (colo320) [4]: 0.040 mg/L (≈ 0.0987 µM); Mouse weight (%) [5, 9]: −7%; colo320 (colorectal cancer cell) growth rate (%) [5, 9]: 1012.22%; colo320 (colorectal cancer cell) mean tumor volume (mm^3) [5, 9]: 1121.1 mm^3; MTD ([6]; Table 4): 25 mg/kg; MTD ([6]; Table 9): 25 mg/kg |
| CCNCCc1c2c(nc3ccccc13)-c1cc3c(c(=O)n1C2)COC(=O)[C@]3(O)CC [D2] | −8 | 1176.5 | 1018.01 | −8 | 1018.01 | 1176.5 | −7% | 946.13 | 1047.9 | −7% | 946.13 | 1047.9 | 0.030 (≈ 0.0715 µM) | 0.030 (≈ 0.0715 µM) | 0.018 (≈ 0.0429 µM) | 0.018 (≈ 0.0429 µM) | 0.023 (≈ 0.0548 µM) | 0.023 (≈ 0.0548 µM) | 0.036 (≈ 0.0858 µM) | 0.036 (≈ 0.0858 µM) | IC50 Colorectal cancer tissue (colo320) [4]: 0.051 mg/L (≈ 0.122 µM); MTD ([6]; Table 4): 25 mg/kg; MTD ([6]; Table 9): 25 mg/kg |
| CCCNCCc1c2c(nc3ccccc13)-c1cc3c(c(=O)n1C2)COC(=O)[C@]3(O)CC [D3] | −5 | 1378.4 | 1192.71 | −5 | 1192.71 | 1378.4 | +7% | 872.19 | 966 | +7% | 872.19 | 966 | 0.026 (≈ 0.06 µM) | 0.026 (≈ 0.06 µM) | 0.021 (≈ 0.0484 µM) | 0.021 (≈ 0.0484 µM) | 0.029 (≈ 0.0669 µM) | 0.029 (≈ 0.0669 µM) | 0.049 (≈ 0.113 µM) | 0.049 (≈ 0.113 µM) | IC50 Colorectal cancer tissue (colo320) [4]: 0.040 mg/L (≈ 0.0923 µM); MTD ([6]; Table 4): 25 mg/kg; MTD ([6]; Table 9): 25 mg/kg |
| CCCCNCCc1c2c(nc3ccccc13)-c1cc3c(c(=O)n1C2)COC(=O)[C@]3(O)CC [D4] | −7 | 1269.4 | 1098.39 | −7 | 1098.39 | 1269.4 | +5% | 945.77 | 1047.5 | +5% | 945.77 | 1047.5 | 0.043 (≈ 0.0961 µM) | 0.043 (≈ 0.0961 µM) | 0.029 (≈ 0.0648 µM) | 0.029 (≈ 0.0648 µM) | 0.054 (≈ 0.121 µM) | 0.054 (≈ 0.121 µM) | 0.076 (≈ 0.17 µM) | 0.076 (≈ 0.17 µM) | IC50 Colorectal cancer tissue (colo320) [4]: 0.078 mg/L (≈ 0.174 µM); MTD ([6]; Table 4): 30 mg/kg; MTD ([6]; Table 9): 30 mg/kg |
